This data set is described as follows: water solubility of the compound of Formula 1. In kind it is physicochemical. How it is done:
However, the compound has a very low water solubility (0.02 mg/ml, pH 6.8), which increases (0.7 mg/ml, pH 3.0) under acid conditions, but not enough to have a significant effect. It is water insoluble and has a very low solubility, in particular, under neutral or higher pH environments, so it has a much difficulty in being formulated into preparations through its dissolution and stabilization in aqueous solutions. Also, its degradation products are increased under acid conditions, thus leading to poor stability and causing a restriction on selection of salts. Furthermore, in case of using solubilizers such as surfactants, etc., to improve the solubility, it requires an excessive amount of excipients, thus causing difficulty.

The structures appear in SMILES notation.

As to `Cc1nc2c(O[C@H]3CCOc4cc(F)cc(F)c43)cc(C(=O)N(C)C)cc2[nH]1` [Formula 1, (S)-4-((5,7-difluorochroman-4-yl)oxy)-N,N-2-trimethyl-1H-benzo[d]imidazole-6-carboxamide], the solubility (as a rule, the dissolved amount per volume that the medium holds) amounted to 700 µg/mL (aqueous buffer, pH 3.0, acid conditions) and 20 µg/mL (pH 6.8, aqueous buffer).
